Measured values: ChEMBL document CHEMBL1201862, “PubChem BioAssay data set” (2004)
Activity calls are given as the source filed them.

Experiments:
Cytochrome P450 3A4 = Cytochrome P450 3A4 (Homo sapiens, UniProt P08684);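 note: CYP3A4 tested as one member of a cytochrome P450 panel screen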
Cytochrome P450 2D6 = Cytochrome P450 2D6 (Homo sapiens, UniProt P10635);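 note: CYP2D6 member of a cytochrome P450 panel assay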
[1] = ZM109 Env clade C HIV-1 fusion inhibitors, dose response, HeLa effector, CEM target cells, luciferase, cherry-pick (AID 652058); type: functional, cell-based
[2] = CEM21 lymphoblast cell cytotoxicity, dose response, cytotoxicity control for viral fusion inhibitor project, CellTiter-Glo luminescence, cherry-picked (AID 652042); type: functional, cell-based;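 note: potency for signal decrease meaning cytotoxicity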
HEK293 = assay: inhibitors of LMP1-driven NF-kB reporter, dose response, cell-based, HEK293, luciferase, cherry-pick (AID 588343); type: functional; settings: Homo sapiens
[3] = inhibitors of HIV Env-driven cell fusion, dose response, cherry-pick (AID 652057); type: functional, cell-based
[4] = off-target signal loss in HeLa-CEM21 co-culture – HeLa F-luc CTL cells, cherry-picked, counter-screen for HIV-1 Env fusion inhibitor project, dose response (AID 652040); type: functional, cell-based;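 note: potency for signal decrease marking cytotoxic or nonspecific inhibition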
[5] = inhibitors of clade B AD8 Env fusion, dose response, cell-based, cherry-pick (AID 652062); type: functional;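 note: luciferase signal from cell-cell fusion driven by HIV-1 clade B AD8 Env; potency is for inhibitors of fusion seen as a drop in luminescence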
[6] = target: T1, Mitochondrial peptide methionine sulfoxide reductase (Bos taurus, UniProt P54149); assay: Absorbance-based biochemical high throughput dose response assay for activators of Methionine sulfoxide reductase A (MsrA).; type: functional
T1 sequence (P54149 whole entry): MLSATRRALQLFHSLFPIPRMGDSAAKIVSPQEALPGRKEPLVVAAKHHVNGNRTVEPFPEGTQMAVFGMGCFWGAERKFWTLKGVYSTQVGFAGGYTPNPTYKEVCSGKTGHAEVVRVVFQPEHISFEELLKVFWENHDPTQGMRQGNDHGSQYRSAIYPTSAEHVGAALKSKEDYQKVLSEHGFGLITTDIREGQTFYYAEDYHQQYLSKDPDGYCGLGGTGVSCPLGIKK

HeLa = assay: HeLa cell cytotoxicity, dose response, cytotoxicity control for MITF activator project, CellTiter-Glo luminescence, cherry-pick samples (AID 540259); type: functional, cell-based; settings: Homo sapiens
Prothrombin = Prothrombin (Bos taurus, UniProt P00735); assay: thrombin inhibition, dose response, biochemical, fluorescence polarization, uHTS hits (AID 602369); type: functional
[7] = target: Heat shock protein HSP 90-alpha (Homo sapiens, UniProt P07900); type: functional, organism-based
[8] = target: T2, Replicative DNA helicase DnaB (Mycobacterium tuberculosis, UniProt P9WMR3); assay: DnaB intein splicing inhibitors, dose response, biochemical, cell-free fluorescence (AID 449749); type: functional
T2 sequence (P9WMR3 whole entry): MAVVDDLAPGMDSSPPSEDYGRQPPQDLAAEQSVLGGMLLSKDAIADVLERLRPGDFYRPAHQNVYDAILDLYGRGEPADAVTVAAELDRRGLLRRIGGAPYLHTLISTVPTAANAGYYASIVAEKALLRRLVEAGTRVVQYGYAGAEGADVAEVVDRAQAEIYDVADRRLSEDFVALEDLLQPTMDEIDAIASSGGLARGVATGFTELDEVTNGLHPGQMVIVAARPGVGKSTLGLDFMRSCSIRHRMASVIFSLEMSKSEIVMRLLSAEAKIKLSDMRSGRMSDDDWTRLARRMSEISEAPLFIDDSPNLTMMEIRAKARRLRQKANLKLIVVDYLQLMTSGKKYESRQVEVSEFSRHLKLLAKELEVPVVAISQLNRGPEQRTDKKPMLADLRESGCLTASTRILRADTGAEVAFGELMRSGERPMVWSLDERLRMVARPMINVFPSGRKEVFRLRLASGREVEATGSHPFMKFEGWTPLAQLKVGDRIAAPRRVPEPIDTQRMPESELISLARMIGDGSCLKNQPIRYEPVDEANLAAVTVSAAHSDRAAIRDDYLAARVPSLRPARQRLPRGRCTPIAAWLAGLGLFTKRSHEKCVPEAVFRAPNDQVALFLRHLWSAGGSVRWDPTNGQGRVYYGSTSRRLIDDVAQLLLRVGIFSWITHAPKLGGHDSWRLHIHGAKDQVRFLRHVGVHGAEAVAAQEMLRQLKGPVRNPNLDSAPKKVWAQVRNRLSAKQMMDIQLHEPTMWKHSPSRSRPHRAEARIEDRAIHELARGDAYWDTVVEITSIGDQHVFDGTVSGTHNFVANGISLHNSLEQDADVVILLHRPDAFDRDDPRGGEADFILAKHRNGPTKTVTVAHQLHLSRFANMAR

[9] = target: 72 kDa type IV collagenase (Homo sapiens, UniProt P08253); assay: Dose Response validation of uHTS RPN11 inhibitor hits using a MMP-2 Fluorescence assay.; type: functional
Sequence of 72 kDa type IV collagenase (P08253 whole entry): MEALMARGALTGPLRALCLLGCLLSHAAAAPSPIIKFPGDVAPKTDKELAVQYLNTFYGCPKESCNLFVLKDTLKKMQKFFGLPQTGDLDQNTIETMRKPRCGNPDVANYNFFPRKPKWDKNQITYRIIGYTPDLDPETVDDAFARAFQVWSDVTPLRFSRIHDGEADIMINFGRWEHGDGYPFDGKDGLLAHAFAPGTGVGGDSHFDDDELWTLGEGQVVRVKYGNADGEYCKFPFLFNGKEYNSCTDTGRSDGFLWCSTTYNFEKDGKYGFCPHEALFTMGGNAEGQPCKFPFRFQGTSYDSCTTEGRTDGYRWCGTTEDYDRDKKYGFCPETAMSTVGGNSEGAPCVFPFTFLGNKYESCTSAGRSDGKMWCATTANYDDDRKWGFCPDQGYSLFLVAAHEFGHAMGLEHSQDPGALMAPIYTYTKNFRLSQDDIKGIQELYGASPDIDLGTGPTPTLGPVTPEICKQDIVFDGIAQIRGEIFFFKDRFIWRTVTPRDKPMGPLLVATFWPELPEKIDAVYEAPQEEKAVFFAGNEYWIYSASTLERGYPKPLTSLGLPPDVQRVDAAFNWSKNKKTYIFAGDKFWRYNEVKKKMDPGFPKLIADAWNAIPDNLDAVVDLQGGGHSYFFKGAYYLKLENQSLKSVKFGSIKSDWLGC

[10] = target: T3, Heat shock factor protein 1 (Mus musculus, UniProt P38532); assay: HSF1 potentiators in luciferase reporter cells, confirmation, cell-based, NIH3T3, luminescence, dose retest (AID 435004); type: functional;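 note: stress induced by proteasome inhibitor MG132 added 30 min after compound; luciferase reporter driven by HSF1 response element in NIH3T3 cells; actives raise luminescence as potentiators of the MG132 stress response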
T3 sequence (P38532 whole entry): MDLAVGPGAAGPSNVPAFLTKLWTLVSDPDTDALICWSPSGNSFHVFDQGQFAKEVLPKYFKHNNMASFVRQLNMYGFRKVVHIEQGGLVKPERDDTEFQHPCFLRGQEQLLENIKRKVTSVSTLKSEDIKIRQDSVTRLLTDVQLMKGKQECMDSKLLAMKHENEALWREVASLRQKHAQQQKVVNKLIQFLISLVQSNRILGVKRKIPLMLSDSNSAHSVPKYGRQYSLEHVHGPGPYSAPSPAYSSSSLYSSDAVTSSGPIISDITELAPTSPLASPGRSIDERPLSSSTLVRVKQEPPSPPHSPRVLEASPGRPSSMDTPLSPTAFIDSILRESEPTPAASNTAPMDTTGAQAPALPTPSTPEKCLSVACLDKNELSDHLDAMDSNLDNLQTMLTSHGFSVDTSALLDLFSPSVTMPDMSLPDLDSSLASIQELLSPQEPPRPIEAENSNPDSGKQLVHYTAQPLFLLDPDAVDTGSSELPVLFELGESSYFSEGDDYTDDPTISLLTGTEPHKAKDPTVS

[11] = target: 26S proteasome non-ATPase regulatory subunit 14 (Homo sapiens, UniProt O00487); assay: inhibition of proteasome subunit RPN11 – biochemical, fluorescence polarization, uHTS hits, confirmation (AID 602368); type: functional
Sequence of 26S proteasome non-ATPase regulatory subunit 14 (O00487 whole entry): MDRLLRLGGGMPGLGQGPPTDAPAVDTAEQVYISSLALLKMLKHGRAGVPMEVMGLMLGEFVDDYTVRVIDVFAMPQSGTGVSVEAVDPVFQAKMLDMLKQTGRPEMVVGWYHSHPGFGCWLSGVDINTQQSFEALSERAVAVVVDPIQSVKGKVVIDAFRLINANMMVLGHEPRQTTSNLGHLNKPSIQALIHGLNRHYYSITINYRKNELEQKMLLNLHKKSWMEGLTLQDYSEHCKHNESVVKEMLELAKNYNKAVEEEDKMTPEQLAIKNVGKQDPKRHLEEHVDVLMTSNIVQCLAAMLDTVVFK

Protein RecA = target: T4, Protein RecA (Mycobacterium tuberculosis, UniProt P9WHJ3); assay: Fluorescence Cell-Free Homogeneous Dose Retest to Identify Inhibitors of RecA-Intein Splicing Activity. [Related pubchem assays (depositor defined):AID2097, AID2223, AID489010, AID492950]; type: functional
T4 sequence (P9WHJ3 whole entry): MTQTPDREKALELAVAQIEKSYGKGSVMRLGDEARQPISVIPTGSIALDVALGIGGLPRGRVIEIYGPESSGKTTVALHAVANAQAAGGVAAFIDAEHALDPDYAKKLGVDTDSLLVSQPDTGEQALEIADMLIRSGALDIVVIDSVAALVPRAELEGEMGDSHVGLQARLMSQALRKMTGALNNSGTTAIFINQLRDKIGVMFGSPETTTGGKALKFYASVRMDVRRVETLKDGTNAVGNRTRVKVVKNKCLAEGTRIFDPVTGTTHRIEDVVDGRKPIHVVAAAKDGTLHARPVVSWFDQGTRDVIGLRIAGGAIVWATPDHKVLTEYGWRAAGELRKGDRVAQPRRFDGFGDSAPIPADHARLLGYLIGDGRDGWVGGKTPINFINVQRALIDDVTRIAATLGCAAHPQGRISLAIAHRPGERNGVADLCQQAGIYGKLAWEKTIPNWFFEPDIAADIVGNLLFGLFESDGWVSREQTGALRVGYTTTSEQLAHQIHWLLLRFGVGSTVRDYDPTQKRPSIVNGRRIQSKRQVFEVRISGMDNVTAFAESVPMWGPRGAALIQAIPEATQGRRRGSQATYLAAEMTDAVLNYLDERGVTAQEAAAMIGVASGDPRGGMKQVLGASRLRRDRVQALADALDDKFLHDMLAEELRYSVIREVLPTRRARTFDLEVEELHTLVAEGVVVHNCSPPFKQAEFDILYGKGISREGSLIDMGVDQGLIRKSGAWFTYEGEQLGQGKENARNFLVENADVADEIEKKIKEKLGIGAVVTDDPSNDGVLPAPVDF

[12] = tested on: Streptococcus sp. 'group A'; assay: growth inhibition of control SK(-) GAS strain, dose response, counter-screen for streptokinase expression inhibitor project, luminescence, kanamycin, BacTiterGlo, confirmation (AID 1900); type: functional, organism-based
Streptococcus = assay: Group A Streptococcus viability loss, dose response, counter-screen for streptokinase expression inhibitor project, luminescence, BacTiterGlo (AID 1915); type: functional, organism-based;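 note: potency for reduction of bacterial viability or growth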
[13] = LGR2 antagonists, dose response, cell-based, HEK293, CRE-luciferase reporter, cherry pick, set 2 (AID 743343); type: functional;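 note: transfected cells were stimulated with diluted bursicon conditioned medium after compound addition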
[14] = inhibitors of firefly luciferase expression or activity, dose response, H4 neuroglioma cells, luminescence (AID 1990); type: functional, cell-based
[15] = Luminescence Cell-Based Dose Response HTS to Identify Inhibitors of 5'UTR Stem-Loop Driven Prion Protein mRNA Translation in H4 Neuroglioblastoma Cells. [Related pubchem assays: 1827 (Project Summary), 1813 (Primary HTS)]; type: functional
[16] = MC4R antagonists, dose response, counter-screen for LGR2 antagonist project, cell-based, plate reader, cherry pick (AID 743444); type: functional;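 note: transfected HEK 293 cells stimulated with alpha-MSH peptide; potency of inhibitors of the alpha-MSH evoked signal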
[17] = inhibitors of SNCA 5'UTR-driven reporter translation, confirmation, H4 neuroglioma cells, luminescence (AID 1988); type: functional, cell-based
Escherichia coli = assay: microbe, parasite or virus in culture
H9c2 = assay: cells; type: functional, cell-based; settings: Rattus norvegicus, H9c2, Myocardium;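 note: confirmatory concentration-response retest of ultra-high-throughput screening hits for modulation of myocardial damage; cell death induced by hydrogen peroxide oxidative stress; compound pretreatment for 60 min then peroxide exposure for 2 h; potency is for protecting the cells against peroxide damage rather than for killing them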
[18] = cytotoxicity in HEK-293T cells, dose response, cytotoxicity control for BCR NF-kB inhibitor project, luminescence, B-cell screen hits (AID 489021); type: functional, cell-based;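 note: HEK-293T cells carrying an NF-kB luciferase reporter; cells exposed to compound for about 14 hours before viability readout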
[19] = target: T5, Low molecular weight phosphotyrosine protein phosphatase (Homo sapiens, UniProt P24666); type: functional; settings: read-out: IC50_Mean;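 note: Dose-response confirmation assay measuring inhibition of LMPTP enzyme activity by fluorescence intensity read-out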
T5 sequence (P24666 whole entry): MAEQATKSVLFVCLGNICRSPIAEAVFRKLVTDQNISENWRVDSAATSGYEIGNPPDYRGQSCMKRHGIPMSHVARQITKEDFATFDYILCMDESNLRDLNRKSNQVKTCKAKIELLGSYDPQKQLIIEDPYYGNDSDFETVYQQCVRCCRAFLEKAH

Sequence of Cytochrome P450 3A4 (P08684 whole entry): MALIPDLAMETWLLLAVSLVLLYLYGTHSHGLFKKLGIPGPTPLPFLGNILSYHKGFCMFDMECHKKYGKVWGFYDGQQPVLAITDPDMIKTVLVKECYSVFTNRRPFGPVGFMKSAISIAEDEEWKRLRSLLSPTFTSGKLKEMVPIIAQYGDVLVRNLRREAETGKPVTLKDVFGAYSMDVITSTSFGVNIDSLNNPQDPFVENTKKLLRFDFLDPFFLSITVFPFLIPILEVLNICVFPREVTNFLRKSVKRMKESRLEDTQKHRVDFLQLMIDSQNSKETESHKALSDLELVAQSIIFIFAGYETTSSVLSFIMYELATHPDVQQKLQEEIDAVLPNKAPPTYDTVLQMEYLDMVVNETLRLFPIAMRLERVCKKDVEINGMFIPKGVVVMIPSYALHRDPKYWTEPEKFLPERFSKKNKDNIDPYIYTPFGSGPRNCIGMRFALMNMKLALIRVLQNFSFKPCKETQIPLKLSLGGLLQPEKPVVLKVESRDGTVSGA
Sequence of Cytochrome P450 2D6 (P10635 whole entry, the tested form may be a part): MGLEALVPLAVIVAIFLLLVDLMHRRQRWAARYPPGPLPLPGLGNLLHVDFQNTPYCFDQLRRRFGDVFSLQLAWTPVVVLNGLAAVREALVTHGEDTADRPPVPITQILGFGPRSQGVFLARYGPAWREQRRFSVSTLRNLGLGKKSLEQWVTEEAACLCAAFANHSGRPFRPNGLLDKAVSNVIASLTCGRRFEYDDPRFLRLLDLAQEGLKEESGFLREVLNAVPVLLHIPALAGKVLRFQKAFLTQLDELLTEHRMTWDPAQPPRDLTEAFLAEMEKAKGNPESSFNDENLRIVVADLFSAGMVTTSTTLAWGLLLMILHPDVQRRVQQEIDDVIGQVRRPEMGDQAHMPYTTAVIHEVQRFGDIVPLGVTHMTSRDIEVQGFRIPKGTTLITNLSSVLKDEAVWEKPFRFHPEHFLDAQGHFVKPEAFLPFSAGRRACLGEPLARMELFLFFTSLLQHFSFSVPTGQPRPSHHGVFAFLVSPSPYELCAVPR

O=C1CCCCCC1C1(O)C(=O)Nc2ccc(Br)cc21 (stereo unspecified)
AC50 (Cytochrome P450 3A4): 17.8 µM (inconclusive)
AC50 (Cytochrome P450 2D6): inconclusive

COc1cccc(-c2nnc3sc(C4CCCCC4)nn23)c1
AC50 [1]: 5.07 µM (active)
AC50 [2]: 30 µM (active)
AC50 (HEK293): 17 µM (active)
AC50 [3]: 4.26 µM (active)
AC50 [4]: 3.63 µM (active)
AC50 [5]: 3.09 µM (active)

N#Cc1ccccc1NC(=O)CN1C(=O)NC(Cc2c[nH]c3ccccc23)C1=O (stereo unspecified)
EC50 [6]: > 104 µM (inactive)

COc1ccc(C(=O)Nc2ccc3c4c(cccc24)CC3)cc1
AC50 (HeLa): 73.4 µM (active)

CN1CCN(C(c2ccc(Cl)cc2)c2cc(Cl)c3cccnc3c2O)CC1 (stereo unspecified)
IC50 (Prothrombin): 75.6 µM (active)
AC50 [7]: 0.77 µM (active)
AC50 [8]: > 380 µM (inactive)
IC50 [9]: 14.8 µM (active)
EC50 [10]: > 260 µM (inconclusive)
IC50 [11]: 56.4 µM (active)
EC50 (Protein RecA): 2.42 µM (active)
EC50 [12]: 1.92 µM (active)
EC50 (Streptococcus): 3.8 µM (active)

CCOC(=O)c1cn2nc(N3CCCC3)ccc2n1
AC50 [13]: 5.94 µM (active)
EC50 [14]: 8.17 µM (inconclusive)
EC50 [15]: 2.56 µM (active)
AC50 [16]: 5.54 µM (active)
AC50 (HEK293): 3.17 µM (active)
EC50 [17]: 5.55 µM (active)

O=C(c1ccccc1)N1CCN(c2nc3ccc([N+](=O)[O-])cc3s2)CC1
AC50 (Escherichia coli): 28.7 µM (active)

COc1ccc(/C=C2\N=C(C)OC2=O)cc1[N+](=O)[O-]
AC50 (HEK293): 237 µM (active)

Cn1c(=O)c2cc(S(=O)(=O)NC(C(=O)Nc3cccc(F)c3)c3ccccc3)ccc2n(C)c1=O (stereo unspecified)
IC50 (Prothrombin): > 100 µM (inactive)
IC50 [9]: > 100 µM (inactive)
IC50 [11]: 92.8 µM (active)

COc1cc(NC(=O)c2cc3c(C)nc4ccccc4c3o2)cc(OC)c1OC
IC50 (H9c2): > 79 µM (inactive)
IC50 [18]: 62.8 µM (inactive)

COc1ccc(-n2nc3c(N4CCC(C(=O)NCc5ccco5)CC4)nnc(C)c3c2C)cc1
IC50 [19]: 61.1 µM (inactive)
EC50 [14]: > 120 µM (not active)
EC50 [15]: 20.3 µM (active)
EC50 [17]: > 120 µM (not active)
